Source: US20260297129A1, “PEPTIDES AS SELECTIVE IL-23 RECEPTOR INHIBITORS” (SANOFI, priority 2023, published 2026)
Converted amounts (≈) assume the structure as drawn. Read-outs that look alike come from different tables or passages of the source. Numbered stars: 1 amine (or outer) side, 2 acyl side, 3 side chain; on linkers, the order of the positions; unused ones are H or OH. Bridge positions count the residues as written; N and C are the ends. Square brackets hold non-standard residues; d marks the D form. Peptide text beside a SMILES is read from it. * marks the point of attachment. Lys(Me,(CH2)4NMe(CH2)4CO) = CN(CCCCC(=O)[*:3])CCCCN(C)CCCC[C@H](N[*:1])C(=O)[*:2]; Trp(7-Me) = Cc1cccc2c(C[C@H](N)C(=O)O)c[nH]c12; NH(2-(3-pyridyl)ethyl) = c1cncc(CCN*)c1; Sebacoyl = O=C(CCCCCCCCC(=O)[*:2])[*:1]; NH(CH2)9CO = O=C(CCCCCCCCCN[*:1])[*:2]; 2Nal = N[C@@H](Cc1ccc2ccccc2c1)C(=O)O; X4 = O=C(CCCCCCCCCCCCCCCN[*:1])[*:2]; 3Pal = N[C@@H](Cc1cccnc1)C(=O)O; Lys(Me) = CNCCCC[C@H](N)C(=O)O; Thp = NC1(C(=O)O)CCOCC1; Me2NCH2CH2 = CN(C)CC*; Aib = CC(C)(N)C(=O)O; Aoc = NCCCCCCCC(=O)O; Sar = CNCC(=O)O

Key:
[1] = Solubility of peptide compounds in buffer formulations (Table 5); type: physicochemical; conditions: target 1 mg/ml
In short: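 Peptide solids, dried from DMSO stock, were taken up at 1 mg/mL in 50 mM HCl pH 1.2, or 50 mM phosphate pH 6.5 or pH 7.4. After 2 h gentle agitation and filtration (0.45 μm), solubility was determined by UHPLC-UV peak area against a DMSO standard of known concentration.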

[2] = Protease stability in simulated intestinal fluids (FaSSIF) (Table 7); type: in vitro ADME; conditions: fassif with pancreatin, 37° C.; for remaining at 1 h, 1 µM: 60 min, read-out: Remaining percentage of peptide compound, FaSSIF 60 (min); for remaining at 2 h, 1 µM: 120 min, read-out: Remaining percentage of peptide compound, FaSSIF 120 (min); for remaining at 4 h, 1 µM: 240 min, read-out: Remaining percentage of peptide compound, FaSSIF 240 (min)
In short: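 1 μM peptide incubated at 37° C in simulated fluid (pancreatin-SIF prepared from pancreatin in SIF concentrate). Samples quenched with acidified ethanol at 0, 60, 120 and 240 min and analysed by LC-MS/MS. Percentage remaining from peak area relative to T0 (100%).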

[3] = Protease stability in simulated gastric fluids (FaSSGF) (Table 7); type: in vitro ADME; conditions: fassgf with pepsin, 60 min, 37° C., read-out: Remaining percentage of peptide compound, FaSSGF 60 (min)
In short: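 Peptides at 1 μM final were incubated at 37 °C in simulated gastric fluid with pepsin (320 mg per 100 mL SGF concentrate). Samples were quenched with ethanol (0.1% HCOOH) at 0, 60, 120 and 240 min and analysed by LC-MS/MS. Percent remaining is the peak area relative to T0 (100%).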

human IL-23R = molecular target: T1, human IL-23R (Homo sapiens, UniProt Q5VWK5); test: Inhibition of IL-23 binding to IL-23R as measured by ELISA (Table 8); conditions: human IL23 coated 1 μg/ml; human IL-23R-Fc 0.1 μg/ml; 60 min; read-out: Human ELISA IL23/IL23R IC50
T1 sequence (Q5VWK5 24-353 limits assumed): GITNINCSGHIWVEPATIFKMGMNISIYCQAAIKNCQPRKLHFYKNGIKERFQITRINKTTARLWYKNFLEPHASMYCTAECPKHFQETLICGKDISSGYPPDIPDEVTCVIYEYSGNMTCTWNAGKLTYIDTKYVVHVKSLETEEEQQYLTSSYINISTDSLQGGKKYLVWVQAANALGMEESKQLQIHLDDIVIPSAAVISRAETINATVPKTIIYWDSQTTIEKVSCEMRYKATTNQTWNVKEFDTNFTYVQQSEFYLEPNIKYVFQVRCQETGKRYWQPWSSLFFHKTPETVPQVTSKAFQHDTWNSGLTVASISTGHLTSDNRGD
Protocol: Antagonism of compounds for human interleukin-23 receptor inhibitors, was determined by an ELISA assay.
A 384-well plate was coated with 50 μl/well of human IL23 at a final concentration of 1 μg/ml and incubated overnight at 4° C. The wells were washed 3 times with 80 μl wash buffer and blocked with 80 μl blocking buffer for 60 minutes at room temperature and washed again. 20 μl of serially diluted test peptides was added to each well and subsequently 20 μl of recombinant human IL-23R-Fc chimera at final concentration of 0.1 μg/ml. The plate was incubated for 60 minutes at room temperature. After the wells were washed, bound IL23R-Fc was detected with goat anti-hu-IgG1-HRP antibody. Signals were visualized with QUANTABLU fluorogenic peroxidase substrate.

[4] = test system: IL-23 induced STAT3 signaling (IL-23 receptor) in HEK-Blue IL-23 cells; test: Inhibition of IL-23 induced STAT3 signaling in HEK-Blue IL-23 cells, SEAP reporter (Table 9); type: cell-based; conditions: human IL23 0.25 ng/ml, overnight, read-out: Inhibition of IL-23 induced pSTAT3 (IC50 nM)
In short: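 HEK-Blue IL-23 reporter cells (10,000/well) pre-incubated 60 min at 37 °C with serially diluted peptides, then stimulated overnight with human IL-23 at 0.25 ng/ml final. SEAP in supernatant read by QUANTI-Blue, 45 min room temperature, OD 620–655 nm; dose-response curve fitting.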

[5] = Chemical stability (relative purity loss) of peptide compounds in buffer formulations (Table 6); type: physicochemical; conditions: 2° C. and 37° C.
In short: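 Compounds at 0.5 mg/mL in 50 mM HCl pH 1.2, 50 mM phosphate pH 6.5 or pH 7.4, each with acetonitrile (3:1), stored 24 hours at 2° C and 37° C. Purity measured by UHPLC-UV before and after. Stability expressed as relative purity loss.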

[6] = Buffer pH 1.1 (head; method: 50 mM HCl pH 1.2), 2 h agitation, read-out: Solubility, Buffer pH 1.1
[7] = aqueous buffer, 50 mM phosphate buffer pH 6.5, 2 h agitation, read-out: Solubility, Buffer pH 6.5
[8] = aqueous buffer, 50 mM phosphate buffer pH 7.4, 2 h agitation, read-out: Solubility, Buffer pH 7.4
[9] = 50 mM phosphate buffer pH 6.5 + acetonitrile (3:1), read-out: Chemical stability (relative purity loss), Buffer pH 6.5
[10] = 50 mM phosphate buffer pH 7.4 + acetonitrile (3:1), read-out: Chemical stability (relative purity loss), Buffer pH 7.4
[11] = 50 mm hcl + acetonitrile, Buffer pH 1.1 (head; method: 50 mM HCl pH 1.2 + acetonitrile 3:1), read-out: Chemical stability (relative purity loss), Buffer pH 1.1

SMILES	solubility at 2 h [1, 6] [µg/mL]	solubility at 2 h [1, 7] [µg/mL]	solubility at 2 h [1, 8] [µg/mL]	remaining at 1 h, 1 µM [2] [%]	remaining at 2 h, 1 µM [2] [%]	remaining at 4 h, 1 µM [2] [%]	remaining at 1 h, 1 µM [3] [%]	IC50 (human IL-23R) [nM]	IC50 [4] [nM]	degraded at 24 h [5, 9] [%]	degraded at 24 h [5, 10] [%]	degraded at 24 h [5, 11] [%]
Cc1cccc2c(C[C@@H]3NC(=O)CCCCCCCCC(=O)N(C)CCCC[C@@H](C(=O)N[C@@H](CC(N)=O)C(=O)N[C@@H](Cc4cccnc4)C(=O)N(C)CC(N)=O)NC(=O)C(C)(C)NC(=O)[C@H](Cc4ccc5ccccc5c4)NC(=O)[C@H](Cc4ccc(OCCN(C)C)cc4)NC(=O)C4(CCOCC4)NC(=O)[C@H](CCC(N)=O)NC3=O)c[nH]c12 [compound 19] ([Trp(7-Me)]Q[Thp]Y(Me2NCH2CH2)[2Nal][Aib][Lys(Me)]N[3Pal][Sar]-NH2; linker N-7 via Sebacoyl)	≥ 1390	120 (≈ 73.6 µM)	80 (≈ 49.1 µM)	80	78	74	97	0.63	0.24	–	–	–
Cc1cccc2c(C[C@@H]3NC(=O)CCCCCCCCCNC(=O)CC[C@@H](C(=O)N[C@@H](CC(N)=O)C(=O)N[C@@H](Cc4cccnc4)C(=O)N(C)CC(N)=O)NC(=O)C(C)(C)NC(=O)[C@H](Cc4ccc5ccccc5c4)NC(=O)[C@H](Cc4ccc(OCCN(C)C)cc4)NC(=O)C4(CCOCC4)NC(=O)[C@H](CCC(N)=O)NC3=O)c[nH]c12 [compound 5] ([NH(CH2)9CO][Trp(7-Me)]Q[Thp]Y(Me2NCH2CH2)[2Nal][Aib]EN[3Pal][Sar]-NH2; lactam N-8)	≥ 1010	350 (≈ 218 µM)	170 (≈ 106 µM)	77	74	70	87	0.64	0.26	–	–	–
Cc1cccc2c(C[C@@H]3NC(=O)CCCCN(C)CCCCN(C)CCCC[C@@H](C(=O)NCC(=O)NCCc4cccnc4)NC(=O)C(C)(C)NC(=O)[C@H](Cc4ccc5ccccc5c4)NC(=O)[C@H](Cc4ccc(OCCN(C)C)cc4)NC(=O)C4(CCOCC4)NC(=O)[C@H](CCC(N)=O)NC3=O)c[nH]c12 [compound 24] ([Trp(7-Me)]Q[Thp]Y(Me2NCH2CH2)[2Nal][Aib][Lys(Me,(CH2)4NMe(CH2)4CO)]G-{NH(2-(3-pyridyl)ethyl)}; lactam N-7)	≥ 990	≥ 900	≥ 880	–	–	–	–	0.84	6.95	–	–	–
Cc1cccc2c(C[C@@H]3NC(=O)CCCCCCCNC(=O)CC[C@@H](C(=O)N[C@@H](CC(N)=O)C(=O)N[C@@H](Cc4cccnc4)C(=O)N(C)CC(N)=O)NC(=O)C(C)(C)NC(=O)[C@H](Cc4ccc5ccccc5c4)NC(=O)[C@H](Cc4ccc(OCCN(C)C)cc4)NC(=O)C4(CCOCC4)NC(=O)[C@H](CCC(N)=O)NC3=O)c[nH]c12 [compound 6] ([Aoc][Trp(7-Me)]Q[Thp]Y(Me2NCH2CH2)[2Nal][Aib]EN[3Pal][Sar]-NH2; lactam N-8)	≥ 1240	≥ 1040	≥ 1090	86	77	77	88	0.67	4.77	–	–	–
Cc1cccc2c(C[C@@H]3NC(=O)CCCCN(C)CCCCN(C)CCCC[C@@H](C(=O)NCC(=O)N[C@@H](Cc4cccnc4)C(=O)N(C)CC(N)=O)NC(=O)C(C)(C)NC(=O)[C@H](Cc4ccc5ccccc5c4)NC(=O)[C@H](Cc4ccc(OCCN(C)C)cc4)NC(=O)C4(CCOCC4)NC(=O)[C@H](CCC(N)=O)NC3=O)c[nH]c12 [compound 28] ([Trp(7-Me)]Q[Thp]Y(Me2NCH2CH2)[2Nal][Aib][Lys(Me,(CH2)4NMe(CH2)4CO)]G[3Pal][Sar]-NH2; lactam N-7)	≥ 1200	≥ 1060	≥ 990	97	98	98	101	–	2.14	0	0	6.7
Cc1cccc2c(C[C@@H]3NC(=O)CCCCCCCCCCCCCCCNC(=O)CC[C@@H](C(=O)N[C@@H](CC(N)=O)C(=O)N[C@@H](Cc4cccnc4)C(=O)N(C)CC(N)=O)NC(=O)C(C)(C)NC(=O)[C@H](Cc4ccc5ccccc5c4)NC(=O)[C@H](Cc4ccc(OCCN(C)C)cc4)NC(=O)C4(CCOCC4)NC(=O)[C@H](CCC(N)=O)NC3=O)c[nH]c12 [compound 3] ([X4][Trp(7-Me)]Q[Thp]Y(Me2NCH2CH2)[2Nal][Aib]EN[3Pal][Sar]-NH2; lactam N-8)	≥ 990	< 10	< 10	84	81	81	71	1.33	9.92	–	–	–
CN(C)CCOc1ccc(C[C@@H]2NC(=O)C3(CCOCC3)NC(=O)[C@H](CCC(N)=O)NC(=O)[C@H](Cc3c[nH]c4ccccc34)NC(=O)CCCCN(C)CCCCN(C)CCCC[C@@H](C(=O)N[C@@H](CO)C(=O)N[C@@H](Cc3cccnc3)C(=O)N(C)CC(N)=O)NC(=O)C(C)(C)NC(=O)[C@H](Cc3ccc4ccccc4c3)NC2=O)cc1 [compound 41] (WQ[Thp]Y(Me2NCH2CH2)[2Nal][Aib][Lys(Me,(CH2)4NMe(CH2)4CO)]S[3Pal][Sar]-NH2; lactam N-7)	≥ 1020	≥ 960	≥ 1020	93	93	81	95	–	4	0	0.4	5.8
